PMC4604124, “In Vitro Characterization of the Pharmacological Properties of the Anti-Cancer Chelator, Bp4eT, and Its Phase I Metabolites” (PLoS ONE, 2015)
Values joined by “and” are separate entries in the source; they are usually repeats but may differ in a detail not shown here. Identical values can stand only once. Like-named read-outs stand apart in the source and are kept apart here.

What was measured:
[1] = system: HCT116 human colorectal carcinoma cells; assay: MTT cytotoxicity assay, HCT116 cells; assay type: cell-based; conditions: for IC50: MTT
Method: (§1) For cytotoxicity experiments, cancer cells were seeded at a density of 5,000 (MCF-7), 10,000 (HL-60) or 2,000 cells/well (HCT116 and A549) in 96-well plates (TPP) for 24 h/37°C prior to the addition of examined agents. The non-cancerous cells, 3T3 and H9c2 cells, were cultured for 24 h/37°C in 96-well plates at a density of 10,000 cells/well, the medium was then changed to serum- and pyruvate-free DMEM (Sigma-Aldrich) and incubated with the cells for another 24 h/37°C. The cytotoxic effects of Bp4eT and its metabolites were studied at different concentrations after a 72 h/37°C incubation. In order to aid the dissolution of the lipophilic ligands, 0.1% dimethyl sulfoxide (v/v) (DMSO; Sigma-Aldrich) was present in the culture medium of all groups. At this concentration, DMSO had no effect on cellular proliferation or viability.
(§2) The viability of cells were determined using an MTT assay (Sigma-Aldrich) according to previously established methods. The optical density of soluble MTT was measured at λ = 570 nm, subtracting the λ = 690 nm background using a Tecan Infinite 200M plate reader (Tecan Group, Männedorf, Switzerland). The viability or proliferation of experimental groups was expressed as a percentage of the untreated controls (100%).
(§3) SigmaStat for Windows 3.5 (Systat Software, San Jose, CA, USA) statistical software package was utilized to analyze results. The data are expressed as the mean ± SD of a given number of experiments. Statistical significance was determined using a one-way ANOVA with a Bonferroni post-hoc test or Student’s t-test. The results were considered to be statistically significant when p < 0.05. The IC50 values were calculated using CalcuSyn 2.0 software (Biosoft, Cambridge, UK). Cell cycle analysis was evaluated using MultiCycle AV Software (Phoenix Flow Systems, San Diego, CA, USA).

[2] = system: MCF-7 human breast adenocarcinoma cells; assay: MTT cytotoxicity assay, MCF-7 cells; assay type: cell-based; conditions: for IC50: MTT, read-out: IC50
Method: as §1, §2, §3

[3] = system: caspase 9; assay: Caspase activity, luminescent kit, caspase 9; assay type: cell-based, human; conditions: for kaspáza 9, raw signal / kaspáza 9, signal / viabilita: individual experiments by date; for kaspáza 9, raw signal, průměry / kaspáza 9, % kontroly / kaspáza 9, signal / viabilita, průměry: mean; for kaspáza 9, % kontroly / kaspáza 9, signal / viabilita / kaspáza 9, signal / viabilita, průměry: normalised to viability
Method: To assess the effect of the compounds on caspase activity, MCF-7 cells were incubated with 100 nM Bp4eT or its metabolites for 3, 24 or 72 h/37°C in 96-well plates, as described above. The cells were then lysed by adding 100 μL of cold lysis buffer (100 mM HEPES, 10 mM CHAPS, 10 mM D-L-dithiothreitol, pH 7.4) to 100 μL of medium in each well. Lysates were immediately frozen at -80°C. Thawed lysates were used to assess caspase activity using luminescent kits for caspases 3/7, 8 and 9 (Promega, Madison, WI, USA). The luminescence was measured using the Tecan Infinite 200M plate reader. Caspase activity in the experimental groups was corrected according to the cellular viability of each group and expressed as a percentage of activity of the untreated control (100%).

CCN=CNN=C(c1ccccc1)c1ccccn1 [Bp4eA, N ^3-ethyl-N ^1-[phenyl(pyridin-2-yl)methylene]formamidrazone]
MTT, relative to control (0 = 100) ([1]; HCT116, 2 000 b/j, 100 μM, průměr (mean), sheet Bp4eA): 58.40 | MTT, relative to control (0 = 100) ([1]; HCT116, 2 000 b/j, 100 μM, single experiment (date), sheet Bp4eA): 42.8559 and 58.6495 and 64.6288 and 67.4584 | MTT, relative to control (0 = 100) ([1]; HCT116, 2 000 b/j, 300 μM, průměr (mean), sheet Bp4eA): 9.79 | MTT, relative to control (0 = 100) ([1]; HCT116, 2 000 b/j, 1000 μM, průměr (mean), sheet Bp4eA): 2.29 | IC50 ([1]; HCT116, 2 000 b/j, single experiment (date), sheet Bp4eA): 115 µM and 125 µM (2×) | IC50 ([1]; Homo sapiens, HCT-116, 72 h, HCT116, 72 h/37°C, mean ± SD, n ≥ 4): 112 ± 20.9 µM | IC50 ([1]; Homo sapiens, HCT-116, HCT116, 2 000 b/j, průměr (mean), sheet Bp4eA): 112 µM | IC50 ([1]; Homo sapiens, HCT-116, HCT116, 2 000 b/j, single experiment (date), sheet Bp4eA): 80.9 µM | Therapeutic index, IC50 non-cancerous cells / IC50 neoplastic cells ([2]; 3T3/MCF-7): 17.3 | Therapeutic index, IC50 non-cancerous cells / IC50 neoplastic cells ([2]; H9c2/MCF-7): 7.0 | IC50 ([2]; Homo sapiens, MCF7, 72 h, MCF-7, 72 h/37°C, mean ± SD, n ≥ 4): 59.4 ± 8.9 µM | IC50 ([2]; Homo sapiens, MCF7, MCF-7, 5 000 b/j, průměr (mean)): 59.4 µM | IC50 ([2]; Homo sapiens, MCF7, MCF-7, 5 000 b/j, single experiment (by date)): 69.9 µM | IC50 ([2]; MCF-7, 5 000 b/j, single experiment (by date)): 48.9 µM and 62.4 µM and 56.6 µM | MTT, value relative to 0 μM = 100 ([2]; MCF-7, 5 000 b/j, koncentrace 1 μM, průměr (mean)): 93.04 | MTT, value relative to 0 μM = 100 ([2]; MCF-7, 5 000 b/j, koncentrace 1 μM, single experiment (by date)): 90.8485 and 99.965 and 93.7506 and 93.1688 and 87.4567 | MTT, value relative to 0 μM = 100 ([2]; MCF-7, 5 000 b/j, koncentrace 3 μM, průměr (mean)): 85.43 | MTT, value relative to 0 μM = 100 ([2]; MCF-7, 5 000 b/j, koncentrace 3 μM, single experiment (by date)): 93.874 and 91.0261 and 71.3771 | MTT, value relative to 0 μM = 100 ([2]; MCF-7, 5 000 b/j, koncentrace 10 μM, průměr (mean)): 84.39 | MTT, value relative to 0 μM = 100 ([2]; MCF-7, 5 000 b/j, koncentrace 10 μM, single experiment (by date)): 92.9139 and 90.5956 and 78.0175 and 76.0291 | MTT, value relative to 0 μM = 100 ([2]; MCF-7, 5 000 b/j, koncentrace 30 μM, průměr (mean)): 81.82 | MTT, value relative to 0 μM = 100 ([2]; MCF-7, 5 000 b/j, koncentrace 30 μM, single experiment (by date)): 88.8876 and 87.4579 and 79.9984 and 70.9265 | MTT, value relative to 0 μM = 100 ([2]; MCF-7, 5 000 b/j, koncentrace 100 μM, průměr (mean)): 26.24 | MTT, value relative to 0 μM = 100 ([2]; MCF-7, 5 000 b/j, koncentrace 100 μM, single experiment (by date)): 35.9762 and 29.29 and 21.3398 and 22.2541 and 22.3478 | MTT, value relative to 0 μM = 100 ([2]; MCF-7, 5 000 b/j, koncentrace 300 μM, průměr (mean)): 16.91 | MTT, value relative to 0 μM = 100 ([2]; MCF-7, 5 000 b/j, koncentrace 300 μM, single experiment (by date)): 19.6559 and 17.473 and 16.628 and 13.8677 | MTT, value relative to 0 μM = 100 ([2]; MCF-7, 5 000 b/j, koncentrace 1000 μM, průměr (mean)): 14.02 | MTT, value relative to 0 μM = 100 ([2]; MCF-7, 5 000 b/j, koncentrace 1000 μM, single experiment (by date)): 14.4001 and 13.0033 and 14.9518 and 13.7358 | kaspáza 9, raw signal ([3]; 3 hodiny): 5948 and 2664.5 and 3083.5 and 2163.5 | kaspáza 9, raw signal, průměry ([3]; 3 hodiny): 3464.88 | kaspáza 9, % kontroly ([3]; 3 hodiny): 101.76 % kontroly | kaspáza 9, signal / viabilita ([3]; 3 hodiny): 61.4437 and 27.5247 and 31.853 and 22.3493 | kaspáza 9, signal / viabilita, průměry ([3]; 3 hodiny): 35.7927 | kaspáza 9, raw signal ([3]; 24 hodin): 4444 and 2960 and 4885.5 and 3130 | kaspáza 9, raw signal, průměry ([3]; 24 hodin): 3854.88 | kaspáza 9, % kontroly ([3]; 24 hodin): 99.64 % kontroly | kaspáza 9, signal / viabilita ([3]; 24 hodin): 46.4885 and 30.9645 and 51.1071 and 32.7428 | kaspáza 9, signal / viabilita, průměry ([3]; 24 hodin): 40.3257 | kaspáza 9, raw signal ([3]; 72 hodin): 22564 and 18032 and 23775.5 and 21453 | kaspáza 9, raw signal, průměry ([3]; 72 hodin): 21456.1 | kaspáza 9, % kontroly ([3]; 72 hodin): 106.51 % kontroly | kaspáza 9, signal / viabilita ([3]; 72 hodin): 242.519 and 193.809 and 255.541 and 230.578 | kaspáza 9, signal / viabilita, průměry ([3]; 72 hodin): 230.612
